Experiment: xn = mol fraction of the nth substance listed
Settings: 100 kPa

CC[n+]1ccn(C)c1.N#C[N-]C#N + OCC(F)(F)F
Settings | speed of sound [m/s] | viscosity [mPa·s]
298.15 K, x1 = 0.1031 | 1021.8 | 2.48
298.15 K, x1 = 0.1957 | 1150.9 | 3.2
298.15 K, x1 = 0.4905 | 1463.6 | 6.07
298.15 K, x1 = 0.5915 | 1544.5 | 7.25
298.15 K, x1 = 0.6943 | 1614.6 | 8.56
298.15 K, x1 = 0.7956 | 1673.5 | 9.95
298.15 K, x1 = 0.8915 | 1730.2 | 11.36
298.15 K, x1 = 1 | 1786.7 | 13.09
303.15 K, x1 = 0.1957 | 1137.7 | 2.81
303.15 K, x1 = 0.2936 | 1258.6 | 3.55
303.15 K, x1 = 0.3935 | 1366.8 | 4.39
303.15 K, x1 = 0.4905 | 1450.9 | 5.29
303.15 K, x1 = 0.6943 | 1602.2 | 7.46
303.15 K, x1 = 0.7956 | 1661.2 | 8.67
303.15 K, x1 = 0.8915 | 1717.9 | 9.91
303.15 K, x1 = 1 | 1774.6 | 11.39
308.15 K, x1 = 0.1031 | 995.3 | 1.96
308.15 K, x1 = 0.1957 | 1124.7 | 2.52
308.15 K, x1 = 0.2936 | 1245.8 | 3.17
308.15 K, x1 = 0.3935 | 1354.2 | 3.92
308.15 K, x1 = 0.4905 | 1438.3 | 4.71
308.15 K, x1 = 0.5915 | 1519.5 | 5.61
308.15 K, x1 = 0.6943 | 1590 | 6.6
308.15 K, x1 = 0.7956 | 1649.1 | 7.66
308.15 K, x1 = 1 | 1762.5 | 10
313.15 K, x1 = 0.1031 | 982.2 | 1.76
313.15 K, x1 = 0.1957 | 1111.8 | 2.27
313.15 K, x1 = 0.2936 | 1233.1 | 2.87
313.15 K, x1 = 0.3935 | 1341.7 | 3.54
313.15 K, x1 = 0.4905 | 1425.9 | 4.25
313.15 K, x1 = 0.5915 | 1507.3 | 5.04
313.15 K, x1 = 0.6943 | 1577.9 | 5.91
313.15 K, x1 = 0.7956 | 1637 | 6.83
313.15 K, x1 = 0.8915 | 1693.9 | 7.76
318.15 K, x1 = 0.1031 | 969.4 | 1.6
318.15 K, x1 = 0.3935 | 1329.4 | 3.23
318.15 K, x1 = 0.4905 | 1413.7 | 3.86
318.15 K, x1 = 0.5915 | 1495.2 | 4.57
318.15 K, x1 = 0.6943 | 1565.9 | 5.34
318.15 K, x1 = 0.7956 | 1625 | 6.15
318.15 K, x1 = 0.8915 | 1682 | 6.96
318.15 K, x1 = 1 | 1738.8 | 7.92
323.15 K, x1 = 0.1031 | 956.4 | 1.48
323.15 K, x1 = 0.1957 | 1086.4 | 1.93
323.15 K, x1 = 0.2936 | 1208.1 | 2.44
323.15 K, x1 = 0.3935 | 1317.1 | 2.99
323.15 K, x1 = 0.4905 | 1401.5 | 3.57
323.15 K, x1 = 0.5915 | 1483.2 | 4.2
323.15 K, x1 = 0.6943 | 1553.9 | 4.89
323.15 K, x1 = 0.7956 | 1613.1 | 5.6
323.15 K, x1 = 0.8915 | 1670.2 | 6.31
323.15 K, x1 = 1 | 1727.1 | 7.13

OCC(F)(F)F + CC[n+]1ccn(C)c1.N#C[N-]C#N
x2 = 0
Settings | speed of sound [m/s] | viscosity [mPa·s]
303.15 K | 819.3 | 1.56
313.15 K | 792.3 | 1.23
318.15 K | 778.8 | 1.1
323.15 K | 765.1 | 0.99

Source: a compilation of properties of binary mixtures (doi:10.1021/acs.jced.0c00447)
